Data on 5 molecules can be found in US20240355418A1, “MULTIPLEX, TEMPORALLY RESOLVED MOLECULAR SIGNAL RECORDER AND RELATED METHODS” (University of Washington, priority 2021, published 2024).

Several values for one entry are separate records, joined by “and”; a condition that tells them apart may be missing. Equal values may be shown once.

The subject of data set [1] is HEK293T cells. Nature of the data set: DNA Typewriter: sequential prime editing of integrated TAPE-1 arrays, pegRNA pool + PE2, amplicon sequencing. It is filed as cell-based. The following applies: for Overall editing rate: reads exhibiting any editing, of all reads: pegRNA pool + PE2, four days. The text has this: To test this idea, DNA Tape (“TAPE-1”) was designed by modifying a spacer sequence previously shown to be highly amenable to prime editing by the PE2 enzyme (HEK293 target 3 or HEK3). In TAPE-1, a 3-bp key (GGA) is followed by one tandem array of a 14-bp monomer (TGATGGTGAGCACG) (SEQ ID NO: 57) that includes the PAM sequence (TGG) at positions 4-6. At the 5′-most end of the TAPE-1 array, the key sequence, the first 14-bp monomer, and the first 6 bases of the subsequent 14-bp monomer, collectively comprise an intact 20-bp spacer and PAM (FIG. 1A). A set of 16 pegRNAs was further designed to target TAPE-1, with each pegRNA programming a distinct 5-bp insertion (FIG. 1B). The first 2-bp of the insertion is unique to each of the 16 pegRNAs. The remaining 3-bp of the insertion corresponds to the key (GGA). The inventors reasoned that when a pegRNA/PE2-mediated insertion occurred at the active TAPE-1 site, it would: (1) record the identity of the pegRNA via the 2-bp portion of the insertion; (2) inactivate the current active site by disrupting its sequence; and (3) activate the next monomer along the array, as the newly inserted GGA key, together with the subsequent […], creates an intact 20-bp spacer and PAM. In the next iteration of genome editing, a pegRNA-mediated insertion to the second monomer would be recorded while also moving the type-guide to the third monomer, and then to the fourth, the fifth, and so on (FIG. 1C).
TAPE-1 arrays were synthesized and cloned with varying numbers of monomer units (2×TAPE-1, 3×TAPE-1, 5×TAPE-1), and stably integrated these arrays into the genome of HEK293T cells via the piggyBAC system. The resulting cells were transiently transfected with a pool of plasmids designed to express PE2 (pCMV-PE2-P2A-GFP; Addgene #132776) and sixteen pegRNAs, each programmed to insert an NNGGA barcode to TAPE-1, and harvested them after four days. The TAPE-1 region was PCR-amplified from genomic DNA and sequenced.
For each TAPE-1 array, the sequencing reads were categorized into those in which: (1) no editing occurred; (2) the observed pattern was consistent with sequential, directional editing; or (3) the observed pattern was inconsistent with sequential, directional editing (FIG. 1D-F; Table 1). […] However, within the set of reads showing edits, the data were overwhelmingly consistent with sequential, directional editing. For example, with 2×TAPE-1, the second monomer was edited in 22.8±1.7% of reads in which the first monomer was also edited (FIG. 1D). In contrast, the second monomer was only edited in 0.6% of reads in which the first monomer was not edited. […] Data obtained from 3×TAPE-1 and 5×TAPE-1 were also consistent with sequential genome editing. For example, 98.5% (3×TAPE-1) and 99.0% (5×TAPE-1) of reads that were edited at the second monomer were also edited at the first monomer, while 97.6% (3×TAPE-1) and 98.8% (5×TAPE-1) of reads that were edited at the third monomer were also edited at the first and second monomers (FIG. 1E-1F).
Table 1. Read counts and editing efficiencies for 2×TAPE-1, 3×TAPE-1, and 5×TAPE-1. Sequencing reads were grouped based on the observed editing pattern. For example, reads from 2×TAPE-1 array were categorized into four groups: (A) no edit at either TAPE-1 site (‘OO’); (B) 5-bp insertion at the first TAPE-1 site only (‘XO’); (C) 5-bp insertion at the second TAPE-1 site only (‘OX’); or (D) 5-bp insertions at both TAPE-1 sites (‘XX’). For reads from 5×TAPE-1 array, editing groups were simplified by categorizing directional and iterative editing pattern (OOOOO, XO, XXO, XXXO, XXXXO, and XXXXX) and the erroneous editing patterns (OX, NOX, NNOX, and NNNOX, where N can be either O or X). Editing efficiencies at each site were calculated as the fraction of reads with an edit at the site over the total number of reads in which the site had been activated via insertion of the ‘key’ that completed the spacer sequence. […]

The test system of data set [2] is HEK293T cells. Nature of the data set: Screen of 48 3×TAPE constructs: efficiency and sequential error rate. It is filed as cell-based. On the procedure:
In each of these 48 constructs, a 3×TAPE region was accompanied by a pegRNA-expressing cassette designed to target it with a 4-6 bp insertion (16 possible 2-bp barcodes followed by a 2-4 bp key sequence). HEK293T cells were transiently transfected with PE2-encoding plasmid and a pool of 48 pegRNA-by-3×TAPE constructs and harvested them after four days. The 3×TAPE region was PCR-amplified from genomic DNA and sequenced.
Two quantities were calculated for each 3×TAPE array: (1) efficiency, calculated by summing all edited reads and dividing by the total number of reads; and (2) sequential error rate, calculated by summing all edited reads inconsistent with sequential, directional editing and dividing by the total number of edited reads (FIG. 7B). […] Indeed, across the full experiment, a longer key sequence was associated with a lower sequential error rate (FIG. 7C). […] Performance characteristics were highly consistent when the experiment was repeated with integration rather than transient transfection of the constructs (FIG. 7E).

Setting [3] is: 5-bp insertions, conditional on site activated, per replicate, listed as 3xTAPE-1.
Where [4] appears, read: 5-bp insertions, conditional on site activated, per replicate, listed as 5xTAPE-1.
Setting [5] is: 6-bp ins., per replicate, listed as 5xTAPE-1.

Turning to “2×TAPE-1: TAPE-1 array with two monomers, SEQ ID NO: 58 (DNA GGATGATGGTGAGCACGTGATGGTGAGCACGTGATGGTGAGC; listed as DNA, chemistry not fully specified; the letters are possibly those of the target site)”, in the data set with HEK293T cells [1], the “Second monomer edited, in reads in which the first monomer was also edited” value was 22.8±1.7%; the “Second monomer edited, in reads in which the first monomer was not edited” value was 0.6%; the “Overall editing rate: reads exhibiting any editing, of all reads” value (“Overall editing rate” below) is listed as 4.7±0.5%. For the same molecule, the “Editing efficiencies: Site 2” value in the data set with HEK293T cells [1] (5-bp insertions, conditional on site activated, per replicate, listed as 2xTAPE-1) was 0.211 and 0.244 and 0.229. Besides, in the data set with HEK293T cells [1] (5-bp insertions, fraction of reads edited at the site over reads in which the site was activated, per transfection replicate, listed as 2xTAPE-1), the “Editing efficiencies: Site 1” value is 0.053 and 0.044 and 0.043.

For “3×TAPE-1: TAPE-1 array with three monomers, SEQ ID NO: 59 (DNA GGATGATGGTGAGCACGTGATGGTGAGCACGTGATGGTGAGCACGTGATGGTGAGC; listed as DNA, chemistry not fully specified; the letters are possibly those of the target site)”, in the data set on HEK293T cells [1], the “Reads edited at the second monomer that were also edited at the first monomer” value is given as 98.5%; the “Reads edited at the third monomer that were also edited at the first and second monomers” value is listed as 97.6%; the “Overall editing rate” value was 5.2±0.6%. Further, in the data set on HEK293T cells [1] (setting [3]), the “Editing efficiencies: Site 2” value was 0.237 and 0.231 and 0.240; the “Editing efficiencies: Site 3” value was 0.170 and 0.189 and 0.221. Further, the “Editing efficiencies: Site 1” value with HEK293T cells [1] (5-bp insertions, fraction of reads edited at the site over reads in which the site was activated, per transfection replicate, listed as 3xTAPE-1) is 0.059 and 0.051 and 0.047.

In the case of “TAPE-6: DNA Tape design from HEK3 with 4-bp key, SEQ ID NO: 7 (DNA GGACTGATGGTGAGACGTGATGGTGAGACG; listed as DNA, chemistry not fully specified; the letters are possibly those of the target site)”, the “Sequential error rate (in words)” value with HEK293T cells [2] (48 tested tapes) is given as “lower sequential error rate than TAPE-1”.

Take “TAPE-27: DNA Tape design, FANCF-based spacer, SEQ ID NO: 32 (DNA GAGATCCGGTCTGCAGCATCCGGTCTGCAGC; listed as DNA, chemistry not fully specified; the letters are possibly those of the target site)”: in the data set on HEK293T cells [2] (3×TAPE), the “Greater efficiency than TAPE-1” value is “over 50%” and the “Greater sequential error rate than TAPE-1” value was 2 fold.

B1: 5×TAPE-1: TAPE-1 array with five monomers, SEQ ID NO: 60 (nucleic acid)
DNA: GGATGATGGTGAGCACGTGATGGTGAGCACGTGATGGTGAGCACGTGATGGTGAGCACGTGATGGTGAGCACGTGATGGTGAGC
modifications: listed as DNA, chemistry not fully specified; the letters are possibly those of the target site
In the case of B1, in the data set with HEK293T cells [1], the “Reads edited at the second monomer that were also edited at the first monomer” value turned out to be 99.0%; the “Reads edited at the third monomer that were also edited at the first and second monomers” value is 98.8%; the “Overall editing rate” value is on record as 5.9±0.8%. In the data set with HEK293T cells [1] (setting [4]), the “Editing efficiencies: Site 2” value was 0.210 and 0.212 and 0.206; the “Editing efficiencies: Site 3” value was 0.151 and 0.144 and 0.154; the “Editing efficiencies: Site 4” value was 0.129 and 0.119 and 0.150; the “Editing efficiencies: Site 5” value is 0.098 and 0.194 and 0.175. The “Editing efficiencies: Site 1” value in the data set on HEK293T cells [1] (5-bp insertions, fraction of reads edited at the site over reads in which the site was activated, per transfection replicate, listed as 5xTAPE-1) was 0.066 and 0.059 and 0.051. In the data set on HEK293T cells [1] (setting [5]), the “Editing efficiencies: Site 1” value was 0.055 (2×) and 0.057; the “Editing efficiencies: Site 2” value was 0.180 and 0.177 and 0.181; the “Editing efficiencies: Site 3” value is 0.083 and 0.078 and 0.089; the “Editing efficiencies: Site 4” value was 0.099 and 0.059 and 0.265. In addition, the “Editing efficiencies: Site 5” value with HEK293T cells [1] (setting [5]) is 0.364 and 0.900 and 0.000.
